Assay results taken from ChEMBL document CHEMBL1201862, “PubChem BioAssay data set” (2004).
Active and inactive are the calls of the source.

Legend:
Prothrombin = Prothrombin (Homo sapiens, UniProt P00734); experiment: Thrombin 1536 HTS Dose Response Confirmation. [Related pubchem assays: 1046 (Thrombin 1536 HTS; hits were confirmed in this assay)]; type: functional
Fatty acid synthase [1] = target: T1, Fatty acid synthase (Homo sapiens, UniProt P49327); experiment: FAS thioesterase domain inhibitors, dose response, biochemical, endpoint fluorescence intensity, uHTS hits (AID 624327); type: functional;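 further: fluorescence from hydrolysis of an O-methyl fluorescein acyl ester substrate by the enzyme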
T1 sequence (P49327 whole entry, the tested form may be a part): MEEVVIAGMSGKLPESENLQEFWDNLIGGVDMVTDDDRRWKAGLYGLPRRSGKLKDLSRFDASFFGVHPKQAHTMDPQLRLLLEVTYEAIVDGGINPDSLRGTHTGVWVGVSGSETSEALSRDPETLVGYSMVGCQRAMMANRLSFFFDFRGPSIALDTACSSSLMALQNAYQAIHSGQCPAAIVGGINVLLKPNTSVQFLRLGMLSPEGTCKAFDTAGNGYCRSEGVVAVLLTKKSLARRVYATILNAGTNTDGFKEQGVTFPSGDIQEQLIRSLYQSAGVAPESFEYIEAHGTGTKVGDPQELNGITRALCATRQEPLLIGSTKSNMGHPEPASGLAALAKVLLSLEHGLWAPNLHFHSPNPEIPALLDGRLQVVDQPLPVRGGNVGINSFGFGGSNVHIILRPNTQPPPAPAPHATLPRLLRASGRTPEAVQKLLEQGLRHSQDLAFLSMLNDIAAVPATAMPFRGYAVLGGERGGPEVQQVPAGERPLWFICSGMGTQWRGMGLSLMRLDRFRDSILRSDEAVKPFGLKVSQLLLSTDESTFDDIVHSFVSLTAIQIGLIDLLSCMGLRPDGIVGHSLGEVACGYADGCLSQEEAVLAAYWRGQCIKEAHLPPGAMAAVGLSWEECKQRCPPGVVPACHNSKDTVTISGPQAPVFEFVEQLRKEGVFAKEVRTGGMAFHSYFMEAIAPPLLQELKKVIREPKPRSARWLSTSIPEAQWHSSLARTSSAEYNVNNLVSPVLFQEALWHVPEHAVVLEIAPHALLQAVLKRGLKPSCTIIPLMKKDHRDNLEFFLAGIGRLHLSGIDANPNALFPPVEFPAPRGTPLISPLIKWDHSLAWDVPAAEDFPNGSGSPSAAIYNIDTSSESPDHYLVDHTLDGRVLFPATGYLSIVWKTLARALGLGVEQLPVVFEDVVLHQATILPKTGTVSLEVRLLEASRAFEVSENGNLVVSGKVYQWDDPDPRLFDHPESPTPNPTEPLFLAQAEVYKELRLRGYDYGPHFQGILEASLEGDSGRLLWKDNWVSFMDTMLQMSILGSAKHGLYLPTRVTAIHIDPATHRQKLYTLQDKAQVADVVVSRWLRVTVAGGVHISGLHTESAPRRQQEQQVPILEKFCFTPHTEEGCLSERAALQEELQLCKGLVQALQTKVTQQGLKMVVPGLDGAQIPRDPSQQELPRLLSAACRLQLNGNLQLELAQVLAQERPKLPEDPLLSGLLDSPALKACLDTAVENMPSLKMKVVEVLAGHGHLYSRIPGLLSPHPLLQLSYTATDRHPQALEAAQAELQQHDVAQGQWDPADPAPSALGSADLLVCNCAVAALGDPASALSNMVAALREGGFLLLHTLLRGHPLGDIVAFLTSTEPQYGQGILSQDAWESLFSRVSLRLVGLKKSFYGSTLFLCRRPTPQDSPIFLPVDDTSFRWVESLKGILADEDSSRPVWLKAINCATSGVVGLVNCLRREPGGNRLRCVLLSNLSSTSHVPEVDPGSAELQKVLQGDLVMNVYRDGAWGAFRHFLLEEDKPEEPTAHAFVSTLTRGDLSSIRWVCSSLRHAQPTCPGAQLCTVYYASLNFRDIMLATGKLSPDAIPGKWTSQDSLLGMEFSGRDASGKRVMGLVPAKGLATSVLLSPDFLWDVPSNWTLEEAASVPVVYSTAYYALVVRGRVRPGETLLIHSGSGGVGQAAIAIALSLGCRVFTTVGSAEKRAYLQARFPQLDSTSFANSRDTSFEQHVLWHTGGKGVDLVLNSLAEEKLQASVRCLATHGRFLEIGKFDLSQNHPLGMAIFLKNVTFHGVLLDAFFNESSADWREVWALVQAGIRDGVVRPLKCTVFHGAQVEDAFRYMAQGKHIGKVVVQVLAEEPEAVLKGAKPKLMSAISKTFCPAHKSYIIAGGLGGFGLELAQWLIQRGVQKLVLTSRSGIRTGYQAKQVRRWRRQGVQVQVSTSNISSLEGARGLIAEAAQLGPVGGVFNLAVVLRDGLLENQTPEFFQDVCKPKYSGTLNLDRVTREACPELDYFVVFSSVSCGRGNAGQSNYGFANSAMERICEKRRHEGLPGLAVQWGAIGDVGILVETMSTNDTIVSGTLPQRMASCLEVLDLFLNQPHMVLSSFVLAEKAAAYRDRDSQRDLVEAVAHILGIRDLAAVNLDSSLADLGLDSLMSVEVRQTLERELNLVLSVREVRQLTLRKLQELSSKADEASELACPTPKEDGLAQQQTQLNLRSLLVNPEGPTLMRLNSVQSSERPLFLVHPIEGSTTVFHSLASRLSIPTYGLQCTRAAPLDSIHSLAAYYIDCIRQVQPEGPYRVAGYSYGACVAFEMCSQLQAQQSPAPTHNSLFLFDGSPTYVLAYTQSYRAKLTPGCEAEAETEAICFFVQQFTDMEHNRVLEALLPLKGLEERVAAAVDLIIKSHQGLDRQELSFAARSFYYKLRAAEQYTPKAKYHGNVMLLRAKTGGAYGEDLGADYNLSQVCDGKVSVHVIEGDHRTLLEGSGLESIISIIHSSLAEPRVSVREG

Fatty acid synthase [2] = target: T1, Fatty acid synthase; experiment: FAS thioesterase domain inhibitors, dose response, biochemical, kinetic fluorescence intensity (AID 624326); type: functional;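 further: rate of fluorescence rise from hydrolysis of a fluorogenic O-methyl fluorescein ester substrate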
Caspase-6 = target: T2, Caspase-6 (Homo sapiens, UniProt P55212); experiment: human caspase-6 inhibitors, dose response, biochemical, VEID-R110 fluorescence, cherry-pick (AID 720632)
T2 sequence (P55212 whole entry): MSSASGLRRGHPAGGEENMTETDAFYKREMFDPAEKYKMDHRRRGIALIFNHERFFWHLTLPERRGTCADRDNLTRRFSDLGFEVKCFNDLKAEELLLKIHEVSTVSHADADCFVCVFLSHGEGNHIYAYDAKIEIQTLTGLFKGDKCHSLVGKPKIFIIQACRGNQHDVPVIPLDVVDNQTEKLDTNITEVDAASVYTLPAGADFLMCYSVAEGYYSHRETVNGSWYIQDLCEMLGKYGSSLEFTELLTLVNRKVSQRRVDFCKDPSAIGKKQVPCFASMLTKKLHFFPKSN

Caspase-3 = target: T3, Caspase-3 (Homo sapiens, UniProt P42574); type: functional;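 further: Dose-response selectivity test against caspase-3 for candidate inhibitors of sentrin-specific proteases (SENPs)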
T3 sequence (P42574 whole entry): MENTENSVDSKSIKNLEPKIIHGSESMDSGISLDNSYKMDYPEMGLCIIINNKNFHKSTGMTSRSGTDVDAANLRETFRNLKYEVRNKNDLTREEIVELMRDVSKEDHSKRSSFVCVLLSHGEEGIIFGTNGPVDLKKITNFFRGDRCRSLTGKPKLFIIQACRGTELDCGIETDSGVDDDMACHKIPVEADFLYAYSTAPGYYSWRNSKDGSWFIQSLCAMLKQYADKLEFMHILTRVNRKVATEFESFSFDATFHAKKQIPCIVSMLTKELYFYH

[3] = target: T4, Sentrin-specific protease 7 (Homo sapiens, UniProt Q9BQF6); type: functional;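 further: Luminescence-based dose-response confirmation of ultra-high-throughput screening hits, measuring inhibition of SENP7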
T4 sequence (Q9BQF6 whole entry): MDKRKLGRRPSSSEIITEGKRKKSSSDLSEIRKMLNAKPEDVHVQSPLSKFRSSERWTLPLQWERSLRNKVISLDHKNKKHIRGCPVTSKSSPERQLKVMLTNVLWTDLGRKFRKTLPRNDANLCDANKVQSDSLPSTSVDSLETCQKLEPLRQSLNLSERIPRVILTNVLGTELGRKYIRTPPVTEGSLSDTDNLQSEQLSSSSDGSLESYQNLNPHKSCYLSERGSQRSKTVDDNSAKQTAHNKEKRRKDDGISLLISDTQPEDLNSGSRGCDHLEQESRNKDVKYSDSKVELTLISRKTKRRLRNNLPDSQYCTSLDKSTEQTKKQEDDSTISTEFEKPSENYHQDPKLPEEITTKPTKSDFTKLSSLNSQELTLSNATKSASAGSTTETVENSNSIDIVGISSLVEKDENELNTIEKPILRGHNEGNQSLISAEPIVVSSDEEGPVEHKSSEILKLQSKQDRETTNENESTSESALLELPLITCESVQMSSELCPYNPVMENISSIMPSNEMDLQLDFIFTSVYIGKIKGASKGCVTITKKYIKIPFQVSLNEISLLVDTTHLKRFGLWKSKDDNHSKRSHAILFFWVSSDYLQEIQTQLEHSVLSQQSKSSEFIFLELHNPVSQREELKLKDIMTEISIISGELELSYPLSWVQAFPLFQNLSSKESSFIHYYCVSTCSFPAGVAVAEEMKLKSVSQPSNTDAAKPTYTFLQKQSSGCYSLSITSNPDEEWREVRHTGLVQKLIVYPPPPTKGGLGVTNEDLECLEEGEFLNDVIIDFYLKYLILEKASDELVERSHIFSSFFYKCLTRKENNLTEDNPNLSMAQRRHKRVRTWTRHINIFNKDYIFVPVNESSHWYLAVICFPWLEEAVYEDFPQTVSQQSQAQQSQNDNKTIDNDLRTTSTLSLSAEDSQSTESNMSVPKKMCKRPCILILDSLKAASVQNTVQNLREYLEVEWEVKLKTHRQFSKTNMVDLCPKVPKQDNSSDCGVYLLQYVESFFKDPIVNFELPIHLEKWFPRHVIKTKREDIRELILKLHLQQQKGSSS

[4] = target: T5, Sentrin-specific protease 6 (Homo sapiens, UniProt Q9GZR1); type: functional;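 further: Luminescence-based dose-response confirmatory assay of SENP6 inhibition, following up an ultra-high-throughput screen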
T5 sequence (Q9GZR1 whole entry): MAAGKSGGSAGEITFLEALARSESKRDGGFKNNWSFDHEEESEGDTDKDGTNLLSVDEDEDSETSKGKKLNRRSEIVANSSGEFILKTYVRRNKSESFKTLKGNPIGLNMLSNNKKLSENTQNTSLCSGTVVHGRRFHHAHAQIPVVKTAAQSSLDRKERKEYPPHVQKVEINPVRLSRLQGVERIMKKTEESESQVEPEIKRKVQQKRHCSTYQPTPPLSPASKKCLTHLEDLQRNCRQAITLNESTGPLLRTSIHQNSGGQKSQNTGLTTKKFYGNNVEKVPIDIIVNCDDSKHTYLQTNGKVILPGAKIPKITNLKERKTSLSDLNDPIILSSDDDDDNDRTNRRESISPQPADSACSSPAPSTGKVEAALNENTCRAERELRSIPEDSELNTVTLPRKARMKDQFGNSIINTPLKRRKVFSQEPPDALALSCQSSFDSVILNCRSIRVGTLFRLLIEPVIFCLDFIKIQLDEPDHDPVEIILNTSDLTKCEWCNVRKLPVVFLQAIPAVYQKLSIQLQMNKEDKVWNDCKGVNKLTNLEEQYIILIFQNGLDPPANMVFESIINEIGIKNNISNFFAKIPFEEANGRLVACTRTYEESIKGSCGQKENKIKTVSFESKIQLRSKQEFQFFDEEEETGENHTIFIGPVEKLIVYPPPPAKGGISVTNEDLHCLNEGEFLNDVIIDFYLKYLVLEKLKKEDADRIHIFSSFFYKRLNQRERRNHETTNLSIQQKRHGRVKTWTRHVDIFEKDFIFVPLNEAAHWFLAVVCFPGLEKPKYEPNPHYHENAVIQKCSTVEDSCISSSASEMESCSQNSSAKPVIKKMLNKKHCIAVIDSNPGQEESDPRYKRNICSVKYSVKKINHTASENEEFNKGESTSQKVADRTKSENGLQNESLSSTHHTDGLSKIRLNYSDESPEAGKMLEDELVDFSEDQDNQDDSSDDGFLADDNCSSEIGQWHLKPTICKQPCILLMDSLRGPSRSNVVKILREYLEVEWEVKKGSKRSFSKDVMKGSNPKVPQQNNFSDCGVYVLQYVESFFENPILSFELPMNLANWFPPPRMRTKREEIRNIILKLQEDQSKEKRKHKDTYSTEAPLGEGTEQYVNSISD

[5] = target: T6, Sentrin-specific protease 8 (Homo sapiens, UniProt Q96LD8); type: functional;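 further: luminescence read-out of SENP8 inhibition, dose-response confirmation following an ultra-high-throughput screen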
T6 sequence (Q96LD8 whole entry): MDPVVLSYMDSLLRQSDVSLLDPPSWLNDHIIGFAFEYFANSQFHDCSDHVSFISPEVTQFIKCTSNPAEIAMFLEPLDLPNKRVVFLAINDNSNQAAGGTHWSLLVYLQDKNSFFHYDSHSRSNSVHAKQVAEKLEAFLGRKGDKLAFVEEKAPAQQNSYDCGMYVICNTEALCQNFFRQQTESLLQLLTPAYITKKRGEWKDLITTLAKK

[6] = tested on: Streptococcus sp. 'group A'; experiment: growth inhibition of control SK(-) GAS strain, dose response, counter-screen for streptokinase expression inhibitor project, luminescence, kanamycin, BacTiterGlo, confirmation (AID 1900); type: functional, organism-based
Streptokinase A = target: T7, Streptokinase A (Streptococcus pyogenes serotype M1, UniProt P10520); experiment: S. pyogenes streptokinase expression inhibitors, potency, dose response, plasminogen activation absorbance, OD405 (AID 1914); type: functional, Streptococcus pyogenes M1 GAS;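 further: secreted streptokinase activity via plasminogen activation per viability signal from cell pellet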
T7 sequence (P10520 whole entry): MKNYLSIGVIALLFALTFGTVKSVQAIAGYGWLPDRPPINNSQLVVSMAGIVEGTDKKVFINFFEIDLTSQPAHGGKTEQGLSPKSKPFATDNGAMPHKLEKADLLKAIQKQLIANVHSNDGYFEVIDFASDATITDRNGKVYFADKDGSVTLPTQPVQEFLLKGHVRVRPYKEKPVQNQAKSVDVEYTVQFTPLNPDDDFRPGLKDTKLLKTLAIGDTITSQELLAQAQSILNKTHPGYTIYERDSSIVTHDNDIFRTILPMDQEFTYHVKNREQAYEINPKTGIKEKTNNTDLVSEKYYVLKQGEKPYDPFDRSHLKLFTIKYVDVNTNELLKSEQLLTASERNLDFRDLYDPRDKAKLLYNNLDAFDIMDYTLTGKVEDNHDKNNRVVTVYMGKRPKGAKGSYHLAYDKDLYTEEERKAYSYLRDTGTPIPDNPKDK

Streptococcus = experiment: Group A Streptococcus viability loss, dose response, counter-screen for streptokinase expression inhibitor project, luminescence, BacTiterGlo (AID 1915); type: functional, organism-based;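 further: potency for reduction of bacterial viability or growth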
BJ [7] = experiment: cytotoxicity toward Ras-transformed BJeLR fibroblasts, dose response, cell-based, alamar blue fluorescence, cherrypicked samples (AID 2631); type: functional; conditions: Homo sapiens;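 further: confirmatory dose-response assay in RAS-dependent BJ fibroblasts engineered with TERT, LT and ST, with cytotoxicity read by fluorescence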
BJ [8] = experiment: cytotoxicity toward BJ-TERT fibroblasts, dose response, cell-based, RAS-independent, luminescence (AID 1933); type: functional; conditions: Homo sapiens
BJ [9] = experiment: cells; type: functional, cell-based; conditions: Homo sapiens
BJ [10] = experiment: cytotoxicity toward BJ-TERT-LT-ST fibroblasts, dose response, cell-based, RAS-independent, luminescence (AID 1935); type: functional; conditions: Homo sapiens;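 further: BJ fibroblasts immortalized with TERT plus LT and ST oncogenes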
[11] = cytotoxicity toward DRD oncogenic fibroblasts, dose response, cell-based, non-viral oncogenic, luminescence (AID 1934); type: functional; conditions: Homo sapiens

O=C(NNC(=O)C(c1ccccc1)c1ccccc1)c1cccs1
IC50 (Prothrombin): > 50 µM (not active)

CC1CCc2c(sc3nc(CN4CCN(S(=O)(=O)c5ccccc5[N+](=O)[O-])CC4)nc(O)c23)C1 (stereo not drawn)
IC50 (Fatty acid synthase [1]): 4.32 µM (active) | IC50 (Fatty acid synthase [2]): 4.55 µM (active)

CCC12CCCN3CCc4c(n(c5ccccc45)C(O)(C(=O)OC)C1)C32 (stereo not drawn)
AC50 (Caspase-6): 21.7 µM (active)

CC(C)Oc1ccc2c(=O)c(-c3ccccc3)coc2c1 [IPRIFLAVONE]
IC50 (Caspase-3): 19.7 µM (active) | IC50 [3]: 5.35 µM (active) | IC50 [4]: 57.2 µM (active) | IC50 [5]: 94.8 µM (active)

COc1ccccc1NC(=O)CCS(=O)(=O)c1ccccc1
IC50 (Prothrombin): > 50 µM (not active)

CCC(=O)n1nc(-c2ccco2)nc1SCc1ccccc1
IC50 (Prothrombin): 0.00342 µM (active)

O=C(CCC(=O)Nc1ccc(F)cc1)N/N=C/c1cc([N+](=O)[O-])ccc1O
IC50 (Fatty acid synthase [1]): 22.6 µM (inactive) | IC50 (Fatty acid synthase [2]): 15.1 µM (active)

Cc1ccc(C(=O)Nc2ccc3c(c2)OCO3)cc1Cl
IC50 (Caspase-3): 13.4 µM (active) | IC50 [3]: 5.94 µM (active) | IC50 [4]: > 100 µM (inactive) | IC50 [5]: > 100 µM (inactive)

O=C(c1ccc2c3n(nc2c1)-c1ccccc1CO3)N1CCCCC1
EC50 [6]: 11.9 µM (active) | EC50 (Streptokinase A): > 150 µM (not active) | EC50 (Streptococcus): 30.6 µM (active) | EC50 (BJ [7]): > 133 µM (inactive)

CC(Sc1nnc(-c2cc3ccccc3o2)n1-c1ccccc1)C(=O)O (stereo not drawn)
IC50 (Prothrombin): > 50 µM (not active)

CCOC(=O)c1c(NC(=O)CSc2nnc(-c3ccccc3C)n2C)sc(C(C)=O)c1C
IC50 (Fatty acid synthase [1]): 9.71 µM (active) | IC50 (Fatty acid synthase [2]): 3.03 µM (active)

O=C(Nc1nnc(C(F)(F)F)s1)c1ccc(Br)s1
IC50 (Caspase-3): 18.8 µM (active) | IC50 [3]: 15.5 µM (active) | IC50 [4]: 22.6 µM (active) | IC50 [5]: 24.1 µM (active)

COc1cc(CNc2nc(C)c([N+](=O)[O-])c(C)c2C#N)cc(OC)c1OC
IC50 (Fatty acid synthase [1]): 61.3 µM (inactive) | IC50 (Fatty acid synthase [2]): 80 µM (inactive)

Cc1ccc([N+](=O)[O-])cc1S(=O)(=O)Nc1ccc(-c2ccc(N3CCCC3)nn2)cc1
IC50 (Fatty acid synthase [1]): 13.7 µM (active) | IC50 (Fatty acid synthase [2]): 8.02 µM (active)

CCOC(=O)c1ccc(-c2ccc3c(c2)CCC3)nc1C
IC50 (Caspase-3): 22.8 µM (active) | IC50 [3]: 6.3 µM (active) | IC50 [4]: 26.3 µM (active) | IC50 [5]: 45.2 µM (active)

O=C(CCCCCCCCCCC(=O)NCc1cccnc1)NCc1cccnc1
EC50 (BJ [8]): > 75 µM (not active) | EC50 (BJ [9]): 1.85 µM (inconclusive) | EC50 (BJ [10]): > 150 µM (inconclusive) | EC50 [11]: > 150 µM (not active) | EC50 (BJ [7]): > 133 µM (inactive)

CCOc1ccc(/C=C2\CCc3ccccc3C2=O)cc1
IC50 (Caspase-3): 1.5 µM (active) | IC50 [3]: 1.22 µM (active) | IC50 [4]: 1.42 µM (active) | IC50 [5]: 1.88 µM (active)

Cc1ccccc1CN1[C@@H](C)[C@H](c2ccccc2)Oc2cccc(NCC(C)C)c2S1(=O)=O
AC50 (Caspase-6): 23.3 µM (active)

Cc1ccccc1S(=O)(=O)N1[C@@H]2CNC[C@H]1[C@@H]2c1ccc(-c2ccc(C#N)cc2)cc1
AC50 (Caspase-6): 30.9 µM (active)

CC(C)(C)NC(=O)NC(=O)COC(=O)C1CCN(S(=O)(=O)c2cccs2)CC1
IC50 (Fatty acid synthase [1]): 12.8 µM (active) | IC50 (Fatty acid synthase [2]): 9.75 µM (active)
